Assay results published in paper PMC5867624, “Molecular Characterization of a Novel N-Acetylneuraminate Lyase from a Deep-Sea Symbiotic Mycoplasma” (Marine Drugs, 2018).

Experiments:
MyNal [1] = target: T1, MyNal (Mycoplasma sp., UniProt A0A2P1G7E2); assay: HPLC of Neu5Ac formed, synthesis; set-up: gene nanA; details: synthesis direction; 20 mM pyruvate fixed; 20 mM phosphate pH 7.0; optimal temperature (65 °C)
MyNal [2] = target: T1, MyNal; assay: LDH/NADH coupled spectrophotometric assay, […] nm, cleavage; format: biochemical; set-up: gene nanA; full-length gene (885 bp) in pET-32a(+), fusion tags kept, about 52 kDa, E. coli BL21(DE3), Ni-NTA; details: cleavage direction; 20 mM phosphate pH 7.0; optimal temperature and pH (optimum 70 °C)
CC(=O)C(=O)O = assay: purified protein; details: synthesis direction, 20 mM ManNAc fixed, 20 mM phosphate pH 7.0, optimal temperature (65 °C)

T1 sequence (A0A2P1G7E2 1-294): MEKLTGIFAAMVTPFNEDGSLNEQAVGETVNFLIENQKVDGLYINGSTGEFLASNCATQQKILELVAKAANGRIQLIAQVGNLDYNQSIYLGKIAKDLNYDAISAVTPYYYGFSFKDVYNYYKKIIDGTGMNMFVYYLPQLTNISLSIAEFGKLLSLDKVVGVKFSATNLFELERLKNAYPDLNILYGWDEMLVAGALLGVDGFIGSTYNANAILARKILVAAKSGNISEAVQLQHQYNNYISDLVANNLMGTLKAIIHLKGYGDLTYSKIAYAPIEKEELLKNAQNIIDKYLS

In the case of CC(=O)N[C@@H]1C(O)O[C@H](CO)[C@@H](O)[C@@H]1O (stereo partly drawn) [ManNAc], the Km (MyNal [1]) is reported as 6.9 ± 0.5 mM.
In the case of CC(=O)N[C@H]1[C@H]([C@H](O)[C@H](O)CO)OC(O)(C(=O)O)C[C@@H]1O (stereo partly drawn) [Neu5Ac], the Km (MyNal [2]) is reported as 1.8 ± 0.2 mM.
Work on MyNal (Mycoplasma sp.) yielded a Km (CC(=O)C(=O)O) of 5.9 ± 0.9 mM.
